# Data reported in ChEMBL document CHEMBL5465560, “Selectivity Literature for EUbOPEN Chemogenomic Library” (2024).
# Tests used:
# [1] = biological target: Serine/threonine-protein kinase 32B (Homo sapiens) (UniProt Q9NY57); assay: Selectivity interaction (KinomeScan (DiscoverX)) EUB0000229b STK32B; details: at 10 µM
# [2] = biological target: Endothelin-1 receptor (Homo sapiens) (UniProt P25101); assay: Selectivity interaction (Eurofins CEREP Diversity Profile (receptors and ion channels)) EUB0000279b EDNRA; details: at 10 µM
# Endothelin-1 receptor (Homo sapiens), sequence (P25101 whole entry): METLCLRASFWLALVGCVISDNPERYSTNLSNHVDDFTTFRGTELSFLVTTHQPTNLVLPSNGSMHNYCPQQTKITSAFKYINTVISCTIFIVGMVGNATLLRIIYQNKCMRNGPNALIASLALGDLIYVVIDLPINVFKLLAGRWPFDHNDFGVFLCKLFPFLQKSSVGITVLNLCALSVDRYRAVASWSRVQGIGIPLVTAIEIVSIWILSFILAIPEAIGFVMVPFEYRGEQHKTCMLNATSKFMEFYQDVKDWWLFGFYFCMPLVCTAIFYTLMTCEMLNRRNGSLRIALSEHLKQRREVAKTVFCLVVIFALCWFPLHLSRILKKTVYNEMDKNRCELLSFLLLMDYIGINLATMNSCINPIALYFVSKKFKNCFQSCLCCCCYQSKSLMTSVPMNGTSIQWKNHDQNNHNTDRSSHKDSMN
# [3] = biological target: Glycogen synthase kinase-3 alpha (Homo sapiens, UniProt P49840); assay: Selectivity interaction (KinomeScan (DiscoverX)) EUB0001079a GSK3A; details: at 1 µM
# Glycogen synthase kinase-3 alpha, sequence (P49840 2-483 limits assumed): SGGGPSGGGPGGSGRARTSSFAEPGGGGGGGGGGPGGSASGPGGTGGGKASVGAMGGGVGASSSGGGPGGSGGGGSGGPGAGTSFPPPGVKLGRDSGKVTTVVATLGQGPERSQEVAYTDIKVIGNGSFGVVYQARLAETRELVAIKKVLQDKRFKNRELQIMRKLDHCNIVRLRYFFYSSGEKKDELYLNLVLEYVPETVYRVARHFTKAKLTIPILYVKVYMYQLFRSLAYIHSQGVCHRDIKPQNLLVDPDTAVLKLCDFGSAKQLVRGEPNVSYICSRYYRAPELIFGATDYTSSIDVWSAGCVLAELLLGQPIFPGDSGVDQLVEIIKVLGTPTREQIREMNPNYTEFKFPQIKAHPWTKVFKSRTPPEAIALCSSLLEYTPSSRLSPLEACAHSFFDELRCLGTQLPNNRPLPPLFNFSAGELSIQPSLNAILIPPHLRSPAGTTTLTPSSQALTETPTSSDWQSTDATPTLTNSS
# [4] = biological target: T1, Serine/threonine-protein kinase PLK4 (Homo sapiens) (UniProt O00444); assay: Selectivity interaction (Ambit KINOMEscan and KiNATiv profiling in Jurkat cells) EUB0000090b PLK4; assay type: cell-based; details: at 1 µM
# T1 sequence (whole entry): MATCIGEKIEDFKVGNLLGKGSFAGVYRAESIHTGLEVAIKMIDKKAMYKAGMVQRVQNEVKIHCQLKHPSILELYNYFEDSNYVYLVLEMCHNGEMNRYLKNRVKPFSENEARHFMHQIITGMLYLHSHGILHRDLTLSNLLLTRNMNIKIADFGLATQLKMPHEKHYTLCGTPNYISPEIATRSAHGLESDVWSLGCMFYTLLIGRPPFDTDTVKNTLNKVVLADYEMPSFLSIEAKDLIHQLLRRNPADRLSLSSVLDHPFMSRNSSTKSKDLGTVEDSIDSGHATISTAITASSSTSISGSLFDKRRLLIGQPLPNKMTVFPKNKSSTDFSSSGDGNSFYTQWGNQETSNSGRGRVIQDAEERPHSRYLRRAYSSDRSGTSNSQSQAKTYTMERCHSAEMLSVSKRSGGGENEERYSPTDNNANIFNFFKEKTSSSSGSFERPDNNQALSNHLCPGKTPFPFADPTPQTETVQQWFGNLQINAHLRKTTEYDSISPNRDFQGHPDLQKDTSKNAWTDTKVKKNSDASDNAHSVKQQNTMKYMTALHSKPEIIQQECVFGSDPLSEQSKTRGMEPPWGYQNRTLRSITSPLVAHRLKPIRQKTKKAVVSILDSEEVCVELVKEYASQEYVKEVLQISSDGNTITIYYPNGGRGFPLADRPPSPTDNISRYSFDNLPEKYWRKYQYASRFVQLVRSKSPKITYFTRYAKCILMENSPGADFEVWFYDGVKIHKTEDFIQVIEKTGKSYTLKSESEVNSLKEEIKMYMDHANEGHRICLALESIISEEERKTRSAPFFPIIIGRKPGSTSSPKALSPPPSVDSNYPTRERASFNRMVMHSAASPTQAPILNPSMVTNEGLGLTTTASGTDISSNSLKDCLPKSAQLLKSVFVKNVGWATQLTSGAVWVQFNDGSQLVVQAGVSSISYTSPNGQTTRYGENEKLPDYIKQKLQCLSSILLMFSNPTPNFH
# [5] = biological target: Serine/threonine-protein kinase WNK2 (Homo sapiens) (UniProt Q9Y3S1); assay: Selectivity interaction (Upstate Kinase Profiler service (Millipore)) EUB0000056c WNK2; details: at 1 µM
# Serine/threonine-protein kinase WNK2 (Homo sapiens), sequence (Q9Y3S1 whole entry): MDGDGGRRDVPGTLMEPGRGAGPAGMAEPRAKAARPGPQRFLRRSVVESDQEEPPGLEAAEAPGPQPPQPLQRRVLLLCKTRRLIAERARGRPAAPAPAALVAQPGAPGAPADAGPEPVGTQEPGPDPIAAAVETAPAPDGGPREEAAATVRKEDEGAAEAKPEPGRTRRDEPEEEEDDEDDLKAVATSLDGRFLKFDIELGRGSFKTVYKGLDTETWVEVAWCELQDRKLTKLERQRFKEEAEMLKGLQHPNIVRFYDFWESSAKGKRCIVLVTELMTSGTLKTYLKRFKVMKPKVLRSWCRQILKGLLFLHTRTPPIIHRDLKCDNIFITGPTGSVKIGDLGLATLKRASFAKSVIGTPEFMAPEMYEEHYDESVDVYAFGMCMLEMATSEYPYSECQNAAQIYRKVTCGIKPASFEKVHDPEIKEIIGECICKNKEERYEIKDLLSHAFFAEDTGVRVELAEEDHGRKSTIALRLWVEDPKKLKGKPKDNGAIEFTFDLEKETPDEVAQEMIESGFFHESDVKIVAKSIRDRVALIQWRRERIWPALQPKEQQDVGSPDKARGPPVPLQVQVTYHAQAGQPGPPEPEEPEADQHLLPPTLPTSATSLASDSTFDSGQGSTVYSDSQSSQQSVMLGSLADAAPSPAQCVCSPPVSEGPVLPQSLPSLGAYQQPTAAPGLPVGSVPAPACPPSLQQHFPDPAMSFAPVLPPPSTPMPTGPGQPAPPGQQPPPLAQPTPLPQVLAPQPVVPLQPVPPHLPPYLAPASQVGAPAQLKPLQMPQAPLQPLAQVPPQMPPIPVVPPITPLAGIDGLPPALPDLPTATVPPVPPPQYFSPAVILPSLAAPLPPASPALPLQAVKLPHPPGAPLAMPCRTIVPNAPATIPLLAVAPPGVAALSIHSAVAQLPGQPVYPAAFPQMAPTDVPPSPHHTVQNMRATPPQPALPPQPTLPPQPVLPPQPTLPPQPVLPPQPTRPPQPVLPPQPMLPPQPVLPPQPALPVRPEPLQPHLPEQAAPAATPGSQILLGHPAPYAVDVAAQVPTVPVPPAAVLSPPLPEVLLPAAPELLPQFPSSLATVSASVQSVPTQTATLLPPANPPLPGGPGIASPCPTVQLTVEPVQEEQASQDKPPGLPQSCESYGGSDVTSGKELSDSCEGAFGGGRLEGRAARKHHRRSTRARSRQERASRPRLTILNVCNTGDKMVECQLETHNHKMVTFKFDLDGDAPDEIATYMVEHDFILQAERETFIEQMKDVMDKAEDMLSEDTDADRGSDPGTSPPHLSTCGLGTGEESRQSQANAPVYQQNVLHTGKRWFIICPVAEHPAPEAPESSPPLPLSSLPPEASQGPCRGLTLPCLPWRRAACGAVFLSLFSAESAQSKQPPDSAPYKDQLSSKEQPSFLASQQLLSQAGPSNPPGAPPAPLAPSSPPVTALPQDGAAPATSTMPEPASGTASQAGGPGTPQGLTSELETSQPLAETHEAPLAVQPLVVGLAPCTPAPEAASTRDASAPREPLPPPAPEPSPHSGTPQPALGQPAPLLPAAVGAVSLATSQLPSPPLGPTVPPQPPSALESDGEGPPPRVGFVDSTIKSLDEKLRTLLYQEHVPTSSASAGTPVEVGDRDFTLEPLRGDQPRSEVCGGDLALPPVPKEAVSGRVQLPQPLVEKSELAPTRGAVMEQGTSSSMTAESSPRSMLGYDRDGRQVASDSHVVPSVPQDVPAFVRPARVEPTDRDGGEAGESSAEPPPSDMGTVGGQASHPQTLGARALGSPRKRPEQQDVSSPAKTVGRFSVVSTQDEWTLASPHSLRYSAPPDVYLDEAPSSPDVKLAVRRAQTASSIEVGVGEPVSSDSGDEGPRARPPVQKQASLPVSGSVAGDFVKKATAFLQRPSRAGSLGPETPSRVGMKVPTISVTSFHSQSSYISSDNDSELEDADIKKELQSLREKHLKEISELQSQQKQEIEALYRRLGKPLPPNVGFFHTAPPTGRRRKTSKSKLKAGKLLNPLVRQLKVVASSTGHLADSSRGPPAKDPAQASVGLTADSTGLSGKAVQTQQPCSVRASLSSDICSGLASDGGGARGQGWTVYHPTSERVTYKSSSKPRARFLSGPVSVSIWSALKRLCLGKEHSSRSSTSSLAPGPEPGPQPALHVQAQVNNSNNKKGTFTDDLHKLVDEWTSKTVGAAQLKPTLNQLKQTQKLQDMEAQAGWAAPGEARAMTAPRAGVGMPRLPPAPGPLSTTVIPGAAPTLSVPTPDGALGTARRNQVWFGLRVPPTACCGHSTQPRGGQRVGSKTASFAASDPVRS
# [6] = biological target: T2, Serine/threonine-protein kinase 3 (Homo sapiens) (UniProt Q13188); assay: Selectivity interaction (SelectScreen profiling (Invitrogen)) EUB0000607a STK3; details: at 2 µM
# T2 sequence (whole entry): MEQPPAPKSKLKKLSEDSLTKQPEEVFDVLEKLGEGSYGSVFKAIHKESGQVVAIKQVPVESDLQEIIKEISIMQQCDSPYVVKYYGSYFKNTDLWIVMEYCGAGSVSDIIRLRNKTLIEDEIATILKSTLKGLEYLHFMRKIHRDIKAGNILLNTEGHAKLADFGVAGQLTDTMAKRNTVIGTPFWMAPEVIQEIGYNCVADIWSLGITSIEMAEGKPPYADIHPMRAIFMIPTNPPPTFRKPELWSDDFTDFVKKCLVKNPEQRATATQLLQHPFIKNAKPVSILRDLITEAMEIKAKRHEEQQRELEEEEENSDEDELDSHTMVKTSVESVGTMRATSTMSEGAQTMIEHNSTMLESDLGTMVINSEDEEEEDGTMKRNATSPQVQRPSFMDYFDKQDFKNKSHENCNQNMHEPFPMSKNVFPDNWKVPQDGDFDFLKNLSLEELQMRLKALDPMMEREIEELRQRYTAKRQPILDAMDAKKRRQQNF
# [7] = biological target: T3, Tyrosine-protein kinase JAK3 (Homo sapiens) (UniProt P52333); assay: Selectivity interaction (Kinase panel (Carna Biosciences)) EUB0001542aTs JAK3; details: at 1 µM
# T3 sequence (whole entry): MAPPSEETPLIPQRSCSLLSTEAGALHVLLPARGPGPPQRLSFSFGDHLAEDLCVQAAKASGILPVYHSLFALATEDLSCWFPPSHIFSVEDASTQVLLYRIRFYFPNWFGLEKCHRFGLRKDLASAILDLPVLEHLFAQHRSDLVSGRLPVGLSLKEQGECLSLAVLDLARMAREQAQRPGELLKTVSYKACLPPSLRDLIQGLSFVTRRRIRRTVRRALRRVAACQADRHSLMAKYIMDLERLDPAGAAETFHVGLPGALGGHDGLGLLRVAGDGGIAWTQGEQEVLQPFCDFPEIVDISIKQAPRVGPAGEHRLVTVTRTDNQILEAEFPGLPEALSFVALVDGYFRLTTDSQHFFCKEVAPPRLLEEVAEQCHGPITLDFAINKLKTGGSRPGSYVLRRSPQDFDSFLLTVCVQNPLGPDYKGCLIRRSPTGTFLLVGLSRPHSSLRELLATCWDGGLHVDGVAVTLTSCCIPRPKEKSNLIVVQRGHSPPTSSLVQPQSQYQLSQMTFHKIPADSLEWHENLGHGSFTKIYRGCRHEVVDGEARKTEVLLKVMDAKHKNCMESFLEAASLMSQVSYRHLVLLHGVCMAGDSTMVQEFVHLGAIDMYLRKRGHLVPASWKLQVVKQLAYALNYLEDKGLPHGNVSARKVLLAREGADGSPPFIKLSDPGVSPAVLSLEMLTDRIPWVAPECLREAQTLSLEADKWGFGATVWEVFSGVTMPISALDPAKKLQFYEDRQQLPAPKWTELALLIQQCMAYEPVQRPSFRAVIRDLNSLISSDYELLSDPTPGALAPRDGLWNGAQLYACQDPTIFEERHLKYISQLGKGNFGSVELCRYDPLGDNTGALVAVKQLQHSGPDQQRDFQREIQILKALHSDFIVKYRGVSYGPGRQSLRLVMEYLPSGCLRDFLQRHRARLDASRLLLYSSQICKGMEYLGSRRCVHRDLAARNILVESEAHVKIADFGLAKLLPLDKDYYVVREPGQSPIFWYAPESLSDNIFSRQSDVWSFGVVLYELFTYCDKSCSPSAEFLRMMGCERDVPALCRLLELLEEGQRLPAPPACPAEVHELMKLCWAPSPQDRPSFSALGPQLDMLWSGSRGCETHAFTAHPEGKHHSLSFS
# [8] = biological target: MAP kinase-interacting serine/threonine-protein kinase 2 (Homo sapiens, UniProt Q9HBH9); assay: Selectivity interaction (Kinase panel (Carna Biosciences)) EUB0001542aTs MKNK2; details: at 1 µM
# MAP kinase-interacting serine/threonine-protein kinase 2, sequence (Q9HBH9 whole entry, looked up): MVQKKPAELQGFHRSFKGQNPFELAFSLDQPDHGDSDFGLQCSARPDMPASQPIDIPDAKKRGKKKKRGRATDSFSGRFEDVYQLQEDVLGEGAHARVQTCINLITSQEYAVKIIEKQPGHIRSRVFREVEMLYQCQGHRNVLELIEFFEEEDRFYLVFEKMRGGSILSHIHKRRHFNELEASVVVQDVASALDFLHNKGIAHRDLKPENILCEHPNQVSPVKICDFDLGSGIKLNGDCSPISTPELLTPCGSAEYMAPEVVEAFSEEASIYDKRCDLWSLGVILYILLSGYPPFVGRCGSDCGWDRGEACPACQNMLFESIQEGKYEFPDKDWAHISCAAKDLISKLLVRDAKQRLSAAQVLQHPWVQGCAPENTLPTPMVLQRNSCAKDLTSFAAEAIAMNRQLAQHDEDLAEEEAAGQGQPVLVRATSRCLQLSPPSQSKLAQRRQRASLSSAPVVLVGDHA
# Serine/threonine-protein kinase 32B (Homo sapiens), sequence (Q9NY57 whole entry): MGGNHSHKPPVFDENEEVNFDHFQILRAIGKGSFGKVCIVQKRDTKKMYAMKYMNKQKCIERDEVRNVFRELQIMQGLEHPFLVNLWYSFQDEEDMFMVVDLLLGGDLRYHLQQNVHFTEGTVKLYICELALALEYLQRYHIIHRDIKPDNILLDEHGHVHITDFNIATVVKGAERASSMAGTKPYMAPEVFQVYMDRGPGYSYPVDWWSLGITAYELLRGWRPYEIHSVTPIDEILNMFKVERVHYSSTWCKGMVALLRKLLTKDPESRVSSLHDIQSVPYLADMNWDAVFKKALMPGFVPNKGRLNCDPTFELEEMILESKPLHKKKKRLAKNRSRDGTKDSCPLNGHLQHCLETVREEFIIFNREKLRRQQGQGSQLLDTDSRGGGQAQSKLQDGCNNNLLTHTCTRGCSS
smiles,measurement,setting,value
COc1cc(N(C)c2ccnc3ccc(C(F)(F)F)cc23)cc(OC)c1OC,% binding,[1],100%
CC(=O)c1cc(-c2ccccc2OCC2CC2)c2ncccn12,% of control,[2],85%
Nc1cnc(N2CCc3cc(S(=O)(=O)Nc4c(F)cc(Cl)cc4F)cc(N4CCCC4=O)c32)nc1 [TP-020n],% of control,[3],100%
CN(C)C/C=C/C(=O)Nc1ccc(C(=O)N2CCCC(Nc3ncc(Cl)c(-c4c[nH]c5ccccc45)n3)C2)cc1 (stereo not drawn),% of control,[4],82%
Cc1ccc(-c2ccc3c(ccc4sc5c(c43)NC[C@@H](C)NC5=O)n2)cn1,% of inhibition,[5],1%
CNC(=O)Nc1ccc(-c2nc(N3CC4CCC(C3)O4)c3cnn(C4CCC5(CC4)OCCO5)c3n2)cc1,% of inhibition,[6],0%
Cn1cc(Nc2nccc(N3CC4CCC(C3)N4C(=O)[C@@H]3CC3(F)F)n2)cn1,% of inhibition,[7],92%
same,% of inhibition,[8],68%
